In patent US20210330756A1, “Acetylation of Miro1” (University of South Carolina, priority 2020, published 2021):

Assays:
[1] = test system: growth cones of adult DRG neurons; assay: Growth cone area/size of DRG sensory axons (DIC imaging); format: cell-based, rat
Method: HDAC6 inhibition increases growth cone size of sensory axons. Given our previous work showing that HDAC6 inhibition allows axons to grow on MAG and CSPG substrates (Rivieccio et al., 2009; Butler et al., 2010), we asked how inhibition of HDAC6 alters axon growth in cultures of adult dorsal root ganglion (DRG) neurons. […] (A) Quantification of neurite length for dissociated DRGs cultured on laminin with addition of HDAC6 inhibitor TubA (10 μm) versus vehicle control (DMSO) over 1 h is shown as average fold-change relative to vehicle±SEM (n≥95 neurons across three independent experiments; NS by one-way ANOVA with Bonferroni post hoc). (B and C) show representative DIC images of distal axons from DRG neurons cultured as in A are shown (B). 1-h TubA treatment appears to increase growth cone size. Analyses of growth cone area across multiple experiments show a significant increase in area after TubA treatment (C). Values are average fold-change±SEM (n≥26 neurons over at least three culture preparations; ***, P≤0.005 by one-way ANOVA with Bonferroni post hoc; scale bar=5 μm; 40×/1.3 NA objective used). […] Prominent HDAC6 signals are seen in distal axons and growth cones (arrows) regardless of TubA exposure. […]
NF-stained cultures were used for neurite growth analyses. […] The growth cone area was measured using ImageJ software from these annotated DIC images. […]

[2] = test system: axons of adult mouse DRG neurons; assay: Microfluidic devices: exposure limited to axons of DRG neurons; format: cell-based
Text: To determine if the effect of growth inhibitors on mitochondrial recovery was limited to distal axons, we performed FRAP on more proximal segments of the axon shaft in DRG neurons expressing Mito-GFP. For analyses of recovery, the bleached ROIs were divided into four subregions along the axon length so that we could distinguish anterograde from retrograde transport-driven Mito-GFP recovery. […] Since this effect of MAG-Fc on recovery could derive from either axons or cell body, we cultured dissociated DRGs in microfluiclic devices where we could limit exposure to MAG-Fc and TubA to the axons.
For primary culture of rat DRG neurons, L4-5 DRG were harvested in Hibernate-A medium (BrainBits) and then dissociated using type I collagenase (50 U/ml; Gibco) for 20 min at 37° C. and 5% CO2(Twiss et al., 2000). Dissociated ganglia were cultured in complete medium containing 10% FetalPlex animal serum complex (Gemini), 1% N1 Supplement (Sigma-Aldrich), and 10 μM cytosine-arabinoside (Sigma-Aldrich) on laminin/poly-L-lysine-coated substrates. Mouse neurons were used for cultures in microfluidic devices. For these, all cervical, thoracic, and lumbar DRGs were collected and digested with collagenase (4 mg/ml, Worthington) and dispase (1 mg/ml; Sigma-Aldrich) for 45 min at 37° C. and 5% CO2; these cells were plated in DMEM/F12 and 10% FBS at 37° C. and 5% CO2. […]

CN1CCc2c(c3ccccc3n2Cc2ccc(C(=O)NO)cc2)C1 [TubA, tubastatin]
time after exposure at which growth cone enlargement was apparent ([1]; 10 μM TubA, time-lapse DIC): ≤ 10 min
growth cone size vs vehicle controls ([1]; 10 μM, 1 h, laminin): significantly larger growth cones
effect on MAG-Fc-dependent decrease in distal axon mitochondria ([2]; TubA in axonal compartment): prevented by TubA treatment
axon retraction and end bulb formation in distal axons after MAG-Fc ([2]; TubA treatment): prevented the axon retraction and end bulb formation
